Source: patent US10130611B2, “Use of benzo-heterocycle derivatives for preventing and treating cancer or for inhibiting cancer metastasis” (MEDICINAL BIOCONVERGENCE RESEARCH CENTER, priority 2009, dated 2018)

Key:
[1] = target: T1, interaction between KRS and laminin receptor (67LR) (Homo sapiens, UniProt Q15046); assay: Yeast two hybrid growth assay, LexA-KRS/B42-LR pair; format: cell-based
T1 construct: expressed in transfected cells; host or cells: yeast EGY/SH cells
Experimental: On the compound of the present invention obtained by screening a library of compounds, the extent of inhibition on the interaction between KRS and laminin receptor (67LR) was determined by a yeast two hybrid assay, as described below. KRS, LR, AIMP2, AIMP3 and MRS were cloned at LexA vector (clontech) and B42 vector (clontech) each so as to produce required vectors. From among the vectors, LexA-KRS vector and B42-LR vector were co-transformed into yeast EGY/SH cells, and then the yeast cells were diluted to an absorbance (540 nm wavelength) of 0.2 in galactose medium not containing uracil (Ura), histidine (His), tryptophane (Trp) and leucine (Leu), and placed in an amount of 200 u in a 96 well plate. 1 μl of each compound at a concentration of 10 mg/ml was placed in each well, incubated for 6 days, and the absorbance was measured at 540 nm. […] The inhibitory specificity of the selected compound was tested by using two different interaction pairs such as LexA-KRS/B42-AIMP2 and LexA-MRS/B42-AIMP3.
In order to determine if the compound of the present invention controls the interaction between KRS and laminin receptor, the present inventors determined the interaction between KRS and 67LR through treatment of the compound of the present invention.

A549 cells [2] = assay: Cell protein synthesis ([35S]methionine incorporation); format: cell-based, human; conditions: KL1 at indicated concentrations, [35S]methionine 2 hours
Experimental: (§1) On MMP2 activity (FIG. 37) and cell migration (FIGS. 38 and 39), KL1-dose-dependent effect was measured. For the test on the cell migration, the cells were treated with KL1 for 8 hours. In FIG. 40, in order to see the effect of KL1 on protein synthesis of cells, A549 cells were treated with KL1 at indicated concentrations, and starved in methionine-free medium. Then, [^35S] methionine was added thereto for 2 hours. Then, the cells were incubated in complete medium for 4 hours, and the level of added methionine was measured by a scintillation counter. In FIG. 41, KL1-dose-dependent cytotoxicity was measured by using A549 cells. In FIG. 42, the effect of KL1 on cancer metastasis was measured according to the method as described above. In each group, 6 mice were included, and KL1 was abdominally injected for 3 weeks, in a dose of 30 mg/kg once a day. Then, the mice were sacrificed. The metastasized tumor nodules over 1 mm in diameter were counted, and their average was calculated (left). The photograph of a representative lung is shown at the right side. […]
A549 cells were treated with the compound (2-[2-(4-methyl-benzoylimino)-benzothiazole-3-yl]-butyric acid, CAND-KL1 or KL1) represented by Formula 15, at indicated concentrations. […] They were lysed, and the radiation dose of lysed cells was measured by a scintillation counter.

A549 cells [3] = assay: Cell migration assay (transwell membrane); format: cell-based, human; conditions: KL1 in different amounts, 8 hours
Experimental: as §1, with “Then, the mice were sacrificed.” left out, “(left).” for “(left). The photograph of a representative lung is shown at the right side.”
Cell migration was measured by using 24-well transwell chambers with polycarbonate membranes (8.0 μm pore size, Costar) as previously described (Park, S. G. et al. Human lysyl-tRNA synthetase is secreted to trigger pro-inflammatory response, Proc. Natl. Acad. Sci. USA 102, 6356-6361 (2005)). […] The migrated cells (attached to the lower face of the membrane) were counted at four randomly selected sites by a microscope (×20).

GST-KRS = target: T2, GST-KRS (Homo sapiens, UniProt Q15046); assay: Surface plasmon resonance assay (BIAcore3000); conditions: GST-KRS immobilized on CM5 chip, binding to GST subtracted, 25° C., 1:1 binding
T2 construct: made in house; host or cells: E. coli Rosetta (DE3)
T2 sequence (Q15046 whole entry): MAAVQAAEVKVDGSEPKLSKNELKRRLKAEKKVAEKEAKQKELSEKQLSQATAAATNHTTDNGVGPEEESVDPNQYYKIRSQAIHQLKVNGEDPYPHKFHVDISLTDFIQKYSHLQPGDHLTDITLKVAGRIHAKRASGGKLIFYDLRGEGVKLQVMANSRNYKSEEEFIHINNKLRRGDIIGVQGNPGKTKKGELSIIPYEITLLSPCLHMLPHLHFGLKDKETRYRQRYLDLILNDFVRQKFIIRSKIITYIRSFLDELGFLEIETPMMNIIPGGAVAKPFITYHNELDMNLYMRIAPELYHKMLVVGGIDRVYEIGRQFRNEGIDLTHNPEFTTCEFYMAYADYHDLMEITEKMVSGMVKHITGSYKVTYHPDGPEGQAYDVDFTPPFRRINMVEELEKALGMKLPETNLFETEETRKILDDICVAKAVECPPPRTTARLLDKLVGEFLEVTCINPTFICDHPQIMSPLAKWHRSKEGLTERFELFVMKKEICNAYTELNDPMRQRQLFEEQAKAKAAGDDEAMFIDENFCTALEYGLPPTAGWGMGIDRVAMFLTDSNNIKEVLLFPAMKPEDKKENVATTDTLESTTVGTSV
Experimental: As a control, an OD level of cells treated with DMSO was measured. FIG. 32 is a photograph showing cell growth in wells containing yeast cells having indicated interaction pairs in the presence or absence of CAND-KL1. In FIG. 33, in 293 cells, through co-immunoprecipitation, the KL1-dose-dependent effect on the interaction between KRS and 67LR was tested. The cells were treated with KL1 for 3 hours, 67LR was immunoprecipitated, and co-precipitation of KRS was determined by western blotting. In FIG. 34, in the presence of KL1 in indicated levels, a laminin receptor labeled with radioisotope was mixed with GST-KRS (1 μg). GST-KRS was precipitated with glutathione-Sepharose beads, and co-precipitated laminin receptor was detected with autoradiography. In FIG. 35, in A549 cells, the effect of KL1 on the intracellular level of 67LR and 37LRP was tested with western blotting. […] GST-KRS was immobilized on a CM5 Sensor Chip, and the binding was measured by a resonance unit (RU) at indicated concentrations (indicated by different colors). […]
The interaction between KRS and the compound (Formula 15) was tested by BIAcore3000 (GE healthcare). […] Then, the binding was measured by a change in a resonance unit (RU). The specific binding activity of CAND-KL1 to GST-KRS was measured by subtracting binding to GST in sensorgram. […]

T1 sequence (Q15046 whole entry): as above

inhibition at 10000 µg/mL (stock) ([1]; growth inhibition of yeast EGY/SH cells with LexA-KRS/B42-LR vs control, 1 μl of 10 mg/ml compound per well, 6 days, absorbance 540 nm, read-out: Inhibition rate(%)): 52.1%
KRS-67LR (yeast growth, OD level) ([1]; yeast two hybrid pair KRS-67LR, compound at 50 μg/ml, DMSO control 0.4241): 0.2223
Kd (GST-KRS): ~2600 nM
Compound: CCC(C(=O)O)n1/c(=N/C(=O)c2ccc(C)cc2)sc2ccccc21 (centres unmarked) [Compound of formula 15, 2-[2-(4-Methyl-benzoylimino)-benzothiazol-3-yl]-butyric acid]
intracellular protein synthesis (A549 cells [2]): not influenced
cell migration (A549 cells [3]): inhibited
